Assay results published in US11053248B2, “[1,2,4]triazolo[1,5-a]pyrimidine compounds as PDE2 inhibitors” (Janssen Pharmaceutica NV, priority 2016, dated 2021).
pIC50: −log10 of the molar value. Several values for one entry are separate records, joined by “and”; a condition that tells them apart may be missing. Equal values may be shown once. Read-outs that look alike come from different tables or passages of the source.

Assays:
hPDE2A = molecular target: T1, hPDE2A (Homo sapiens, UniProt O00408); test: In vitro assay PDE2A (SPA, 3H-cGMP); type: biochemical; conditions: for Emax: read-out: hPDE2A Emax
T1 construct: made in house; host or cells: Sf9 insect cells (baculovirus)
T1 sequence (O00408 whole entry): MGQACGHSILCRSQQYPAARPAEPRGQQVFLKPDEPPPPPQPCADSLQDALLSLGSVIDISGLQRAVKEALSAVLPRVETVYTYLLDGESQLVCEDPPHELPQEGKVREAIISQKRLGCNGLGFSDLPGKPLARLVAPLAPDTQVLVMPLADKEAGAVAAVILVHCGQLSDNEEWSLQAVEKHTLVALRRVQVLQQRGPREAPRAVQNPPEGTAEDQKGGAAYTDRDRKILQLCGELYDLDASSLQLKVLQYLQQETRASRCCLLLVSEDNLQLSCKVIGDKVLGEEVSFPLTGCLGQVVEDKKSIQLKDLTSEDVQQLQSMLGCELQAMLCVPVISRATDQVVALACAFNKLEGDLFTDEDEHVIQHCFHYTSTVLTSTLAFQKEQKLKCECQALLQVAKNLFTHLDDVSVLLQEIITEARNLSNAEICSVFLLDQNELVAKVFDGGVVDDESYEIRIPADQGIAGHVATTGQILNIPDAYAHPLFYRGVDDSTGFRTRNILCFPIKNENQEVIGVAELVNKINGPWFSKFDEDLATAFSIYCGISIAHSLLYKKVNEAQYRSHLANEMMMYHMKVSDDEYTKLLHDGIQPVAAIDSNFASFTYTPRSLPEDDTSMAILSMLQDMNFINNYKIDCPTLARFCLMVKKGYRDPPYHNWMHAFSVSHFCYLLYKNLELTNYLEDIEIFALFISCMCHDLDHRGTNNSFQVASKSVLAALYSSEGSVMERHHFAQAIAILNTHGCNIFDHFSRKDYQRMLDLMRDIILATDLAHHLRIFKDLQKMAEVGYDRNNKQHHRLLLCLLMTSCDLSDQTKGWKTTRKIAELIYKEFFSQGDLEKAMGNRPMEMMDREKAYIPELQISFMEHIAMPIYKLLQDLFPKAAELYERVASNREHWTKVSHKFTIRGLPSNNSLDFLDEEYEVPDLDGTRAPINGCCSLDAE
Description: Human recombinant PDE2A (hPDE2A) was expressed in Sf9 cells using a recombinant rPDE10A baculovirus construct. Cells were harvested after 48 h of infection and the hPDE2A protein was purified by metal chelate chromatography on Ni-sepharose 6FF. Tested compounds were dissolved and diluted in 100% DMSO to a concentration 100 fold of the final concentration in the assay. Compound dilutions (0.4 μl) were added in 384 well plates to 20 μl of incubation buffer (50 mM Tris pH 7.8, 8.3 mM MgCl2, 1.7 mM EGTA). 10 μl of hPDE2A enzyme in incubation buffer was added and the reaction was started by addition of 10 μl substrate to a final concentration of 10 μM cGMP and 0.01 μCi ^3H-cGMP. The reaction was incubated for 45 minutes at room temperature. […] After sedimentation of the beads during 30 minutes the radioactivity was measured in a Perkin Elmer Topcount scintillation counter and results were expressed as cpm. For blanc values the enzyme was omitted from the reaction and replaced by incubation buffer. Control values were obtained by addition of a final concentration of 1% DMSO instead of compound.

hPDE3B = test: In vitro assay PDE3 (SPA, 3H-cAMP); type: biochemical, human; design: hPDE3B Emax: unit not given here; conditions: for hPDE3B pIC50: 0.4 μM cAMP substrate
hPDE10A2 = hPDE10A2 (Homo sapiens, UniProt Q9Y233); test: biochemical; conditions: for IC50: 60 nM cAMP substrate, read-out: hPDE10A2 pIC50 (converted); for Emax: read-out: hPDE10A2 Emax
hPDE10A2, sequence (Q9Y233 267-1055): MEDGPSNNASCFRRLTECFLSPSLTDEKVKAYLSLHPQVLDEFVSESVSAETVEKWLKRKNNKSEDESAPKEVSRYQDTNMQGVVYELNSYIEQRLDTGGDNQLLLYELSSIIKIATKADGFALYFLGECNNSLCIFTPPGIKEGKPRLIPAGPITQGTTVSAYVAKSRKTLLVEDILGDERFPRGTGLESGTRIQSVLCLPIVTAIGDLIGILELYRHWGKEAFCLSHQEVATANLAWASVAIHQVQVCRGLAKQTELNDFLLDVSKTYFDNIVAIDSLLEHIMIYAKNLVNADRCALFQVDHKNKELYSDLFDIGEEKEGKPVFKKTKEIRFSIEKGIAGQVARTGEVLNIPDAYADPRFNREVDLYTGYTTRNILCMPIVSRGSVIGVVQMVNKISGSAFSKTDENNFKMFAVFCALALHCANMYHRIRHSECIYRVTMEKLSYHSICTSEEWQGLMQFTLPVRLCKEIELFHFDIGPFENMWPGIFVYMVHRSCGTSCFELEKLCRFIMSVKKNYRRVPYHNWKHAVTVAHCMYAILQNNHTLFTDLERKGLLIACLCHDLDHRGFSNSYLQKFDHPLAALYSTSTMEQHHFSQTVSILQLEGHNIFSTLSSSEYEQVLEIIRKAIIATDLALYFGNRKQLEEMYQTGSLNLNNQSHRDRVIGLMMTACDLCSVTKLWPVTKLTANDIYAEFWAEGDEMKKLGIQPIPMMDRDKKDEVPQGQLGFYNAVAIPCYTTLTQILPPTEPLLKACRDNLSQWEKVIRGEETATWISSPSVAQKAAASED
Description: Rat recombinant PDE10A (rPDE10A2) was expressed in Sf9 cells using a recombinant rPDE10A baculovirus construct. Cells were harvested after 48 h of infection and the rPDE10A protein was purified by metal chelate chromatography on Ni-sepharose 6FF. Tested compounds were dissolved and diluted in 100% DMSO to a concentration 100 fold of the final concentration in the assay. Human recombinant PDE10A […] was expressed in Sf9 cells using a recombinant hPDE10A baculovirus that was made and amplified in house. Cells were harvested after 72 h of infection and the hPDE10A protein was purified by metal chelate chromatography on Ni-sepharose. Compound dilutions (0.4 μl) were added in 384 well plates to 20 μl of incubation buffer (50 mM Tris pH 7.8, 8.3 mM MgCl2, 1.7 mM EGTA). […] of rPDE10A or hPDE10A enzyme in incubation buffer was added and the reaction was started by addition of 10 μl substrate to a final concentration of 60 nM cAMP and 0.008 μCi ^3H-cAMP. The reaction was incubated for 60 minutes at room temperature. […] After sedimentation of the beads during 30 minutes the radioactivity was measured in a Perkin Elmer Topcount scintillation counter and results were expressed as cpm. For blanc values the enzyme was omitted from the reaction and replaced by incubation buffer. Control values were obtained by addition of a final concentration of 1% DMSO instead of compound.

PDE2A = molecular target: T2, PDE2A (Rattus norvegicus, UniProt Q01062); test: PDE2 occupancy by ex-vivo autoradiography with [3H]B-17a; type: in vivo; conditions: for receptor occupancy at 10 mg/kg / ED50: rat; for ED50: read-out: PDE occupancy ED50, route PO (oral), male Wistar rats, dose producing 50% occupancy
T2 construct: from tissue; host or cells: rat brain striatal sections (ex vivo)
T2 sequence (Q01062 1-928): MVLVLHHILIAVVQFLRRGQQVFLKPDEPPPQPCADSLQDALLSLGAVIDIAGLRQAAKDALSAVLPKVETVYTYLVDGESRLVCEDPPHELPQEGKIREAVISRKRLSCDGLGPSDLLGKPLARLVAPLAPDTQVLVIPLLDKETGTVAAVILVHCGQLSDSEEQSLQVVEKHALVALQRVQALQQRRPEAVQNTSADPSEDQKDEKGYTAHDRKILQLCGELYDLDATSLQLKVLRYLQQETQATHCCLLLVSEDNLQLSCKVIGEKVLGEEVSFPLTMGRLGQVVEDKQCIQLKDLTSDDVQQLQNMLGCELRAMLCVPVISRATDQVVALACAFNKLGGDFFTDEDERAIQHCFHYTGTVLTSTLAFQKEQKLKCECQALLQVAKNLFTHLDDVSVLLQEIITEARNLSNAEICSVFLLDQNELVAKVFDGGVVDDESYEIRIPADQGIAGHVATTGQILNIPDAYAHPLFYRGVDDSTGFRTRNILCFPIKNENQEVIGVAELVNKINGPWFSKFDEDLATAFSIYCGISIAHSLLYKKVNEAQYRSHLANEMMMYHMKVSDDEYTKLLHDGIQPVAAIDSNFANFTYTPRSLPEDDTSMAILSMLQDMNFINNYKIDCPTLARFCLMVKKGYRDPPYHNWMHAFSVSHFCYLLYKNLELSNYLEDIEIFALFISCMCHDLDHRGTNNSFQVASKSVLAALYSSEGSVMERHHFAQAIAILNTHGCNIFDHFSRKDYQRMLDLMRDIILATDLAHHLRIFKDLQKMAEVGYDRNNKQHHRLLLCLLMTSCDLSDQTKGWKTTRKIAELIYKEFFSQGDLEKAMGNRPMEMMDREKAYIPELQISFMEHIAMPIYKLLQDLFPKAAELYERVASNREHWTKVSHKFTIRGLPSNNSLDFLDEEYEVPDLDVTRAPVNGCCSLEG
Description: PDE2 Occupancy by Test Compounds Methods
Brains were immediately removed from the skull and rapidly frozen in dry-ice cooled 2-methylbutane (−40° C.).
After thawing, sections were dried under a cold stream of air and incubated for one minute with 30 nM [^3H]B-17a in Tris-HCl (50 mM, pH7.4) containing 0.3% BSA. Brain sections from drug-treated and vehicle-treated animals were incubated in parallel. […] After incubation, the excess of [^3H]B-17a was washed off in ice-cold buffer 2 times 10 minutes, followed by a quick dip in distilled water. The sections were then dried under a stream of cold air.
Brain sections were loaded in a β-imager (Biospace, Paris) for 4 h and radioactivity emerging from delineated brain area was quantified using the Beta vision program (Biospace, Paris). Specific binding was determined as the difference between total binding in the striatum and non-specific binding in the cerebellum. Percentage receptor occupancy of the drug administered to the animal corresponded to 100% minus the percentage receptor labeled in the treated animal. For the determination of ED50-values, the percentage of receptor occupancy was plotted against dose and the sigmoidal log dose-effect curve of best fit was calculated by non-linear regression analysis, using the GraphPad Prism program.

[1] = route SC (subcutaneous), 10 mg/kg, male Wistar rats, striatum, percentage occupancy, read-out: PDE2 occupancy at 10 mg/kg
[2] = route PO (oral), 10 mg/kg, male Wistar rats, striatum, percentage occupancy, read-out: PDE2 occupancy at 10 mg/kg
[3] = sc, read-out: PDE2 occupancy at 10 mg/kg, route SC (subcutaneous), 10 mg/kg, male Wistar rats, striatum, percentage occupancy
[4] = po, read-out: PDE2 occupancy at 10 mg/kg
[5] = po, read-out: PDE2 occupancy at 10 mg/kg, route PO (oral), 10 mg/kg, male Wistar rats, striatum, percentage occupancy

Compound	pIC50 (hPDE2A)	Emax (hPDE2A) [%]	hPDE3B Emax (hPDE3B)	hPDE3B pIC50 (hPDE3B)	IC50 (hPDE10A2) [nM]	Emax (hPDE10A2) [%]	melting point [°C]	receptor occupancy at 10 mg/kg (PDE2A; [1]) [%]	PDE2 occupancy at 10 mg/kg (PDE2A; route SC (subcutaneous), 10 mg/kg, male Wistar rats, striatum, percentage occupancy)	IC50 (hPDE2A; 10 μM cGMP substrate, read-out: hPDE2A pIC50 (converted)) [nM]	receptor occupancy at 10 mg/kg (PDE2A; [2]) [%]	receptor occupancy at 10 mg/kg (PDE2A; [3]) [%]	receptor occupancy at 10 mg/kg (PDE2A; [4]) [%]	receptor occupancy at 10 mg/kg (PDE2A; [5]) [%]	ED50 (PDE2A; po) [mg/kg]	PDE2 occupancy at 10 mg/kg (PDE2A; route PO (oral), 10 mg/kg, male Wistar rats, striatum, percentage occupancy)
C[C@H]1CCN(c2nccc3occc23)C[C@@H]1c1cc(C(F)F)nc2ncnn12 [Compound 30]	5.07	9	53	5.02	> 10000	41	184.03	–	–	–	–	–	–	–	–	–
C[C@@H]1CCN(c2nccc3cccnc23)C[C@H]1c1cc(C(F)F)nc2ncnn12 [Compound 23]	7.13	95	54	<5	661	93	111.34	5	–	–	–	–	–	–	–	–
C[C@@H]1CCN(c2nccc3occc23)C[C@H]1c1cc(C(F)F)nc2ncnn12 [Compound 13]	7.80	98	54	5.07	457	91	182.59	–	41 and 67	–	–	–	–	–	–	–
C[C@@H]1CCN(c2cc(C#N)c3cc(Cl)ccc3n2)C[C@H]1c1cc(C(F)F)nc2ncnn12 [Compound 37]	–	102	70	5.17	363	96	235.11	–	–	129	–	–	–	–	–	–
Cc1ccc(C#N)c(N2CC[C@@H](C)[C@H](c3cc(C(F)F)nc4ncnn34)C2)n1 [Compound 17]	7.71	100	66	5.15	102	97	–	–	–	–	-18	–	–	–	–	–
C[C@@H]1CCN(c2nccc3[nH]ccc23)C[C@H]1c1cc(C(F)F)nc2ncnn12 [Compound 9]	7.90	101	60	5.13	708	92	–	–	–	–	–	36	–	–	–	–
C[C@@H]1CCN(c2ncnc3ccccc23)C[C@H]1c1cc(C(F)F)nc2ncnn12 [Compound 12]	7.84	100	67	5.25	646	96	–	–	–	–	–	–	1	–	–	–
C[C@@H]1CCN(c2cc(N3CCOCC3)ccn2)C[C@H]1c1cc(C(F)F)nc2ncnn12 [Compound 27]	6.97	100	48	5.07	2630	80	–	0	–	–	–	–	–	–	–	–
C[C@@H]1CCN(c2ncc(Cl)c3ccccc23)C[C@H]1c1cc(C(F)F)nc2ncnn12 [Compound 6]	8.05	99	67	5.21	417	101	–	–	–	–	–	–	–	3	–	–
C[C@@H]1CCN(c2ccccn2)C[C@H]1c1cc(C(F)F)nc2ncnn12.Cl [Compound 32]	6.77	86	38	<5	1660	87	–	–	–	–	–	–	18	–	–	–
COc1cccc2c(N3CC[C@@H](C)[C@H](c4cc(C(F)F)nc5ncnn45)C3)nccc12.Cl [Compound 10]	7.89	99	84	5.53	490	100	–	–	–	–	–	53	–	–	20	–
Cc1cc([C@@H]2CN(c3nccc4ccc(Cl)cc34)CC[C@H]2C)n2ncnc2n1 [Compound 3]	8.52	100	88	5.49	83.2	100	–	–	–	–	–	–	–	90	2.12	89
Cc1cc([C@@H]2CN(c3nccc4ccc(Br)cc34)CC[C@H]2C)n2ncnc2n1 [Compound 2]	8.97	100	89	5.45	74.1	102	–	–	–	–	–	–	–	96	2.6	–
C[C@@H]1CCN(c2cc(I)ccn2)C[C@H]1c1cc(C(F)F)nc2ncnn12 [Compound 16]	7.74	100	95	6.19	224	99	–	-14	–	–	–	–	–	–	–	–
C[C@H]1CCN(c2nccc3ccc(Br)cc23)C[C@@H]1c1cc(C(F)F)nc2ncnn12 [Compound 29]	5.53	8	99	5.85	2510	84	134.49	–	–	–	–	–	–	–	–	–
C[C@@H]1CCN(c2cc(C#N)ccn2)C[C@H]1c1cc(C(F)F)nc2ncnn12 [Compound 22]	7.17	100	82	5.5	1150	90	–	–	–	–	0	–	–	–	–	–
C[C@@H]1CCN(c2ccnc3ccccc23)C[C@H]1c1cc(C(F)F)nc2ncnn12 [Compound 42]	7.69	99	70	5.27	1230	91	–	–	–	–	–	–	-8	–	–	–
